Experimental data from PubChem BioAssay AID270 (DTP/NCI, 2004).
“And” between values parts separate entries of the source, which are not always exact repeats. Equal values may be shown once. Inconclusive results are not listed.

System: BDF1 mice, s.c. Lewis lung carcinoma, T/C %
Assay: NCI In Vivo Anticancer Drug Screen. Data for tumor model Lewis Lung Carcinoma (subcutaneous) in B6D2F1 (BDF1) mice
Method in brief: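 Antitumor effect in vivo is scored from survival or tumor burden, reported as treated relative to vehicle controls.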

[1] = endpoint: mean tumor weight, dose: 50.0 mg/kg/injection, schedule: Q01DX011 (ip), vehicle: saline, higher = larger tumour
[2] = endpoint: mean tumor weight, dose: 100.0 mg/kg/injection, schedule: Q01DX011 (ip), vehicle: saline, higher = larger tumour
[3] = endpoint: mean tumor weight, dose: 200.0 mg/kg/injection, schedule: Q01DX011 (ip), vehicle: saline, higher = larger tumour

O=NN(CCCl)C(=O)NC1CCC(=O)NC1=O (configuration not stated)
T/C (endpoint: median survival time, dose: 0.5 mg/kg/injection, schedule: Q01DX009 (ip), vehicle: Klucel (hydroxypropylcellulose) (HPC), higher = longer survival): 107 % of control and 110 % of control | T/C (endpoint: median survival time, dose: 1.0 mg/kg/injection, schedule: Q01DX009 (ip), vehicle: Klucel (hydroxypropylcellulose) (HPC), higher = longer survival): 100 % of control and 105 % of control | T/C (endpoint: median survival time, dose: 1.25 mg/kg/injection, schedule: Q01DX009 (ip), vehicle: other, higher = longer survival): 122 % of control | T/C (endpoint: median survival time, dose: 2.0 mg/kg/injection, schedule: Q01DX009 (ip), vehicle: Klucel (hydroxypropylcellulose) (HPC), higher = longer survival): 101 % of control and 117 % of control | T/C (endpoint: median survival time, dose: 2.0 mg/kg/injection, schedule: Q02DX009 (ip), vehicle: saline with Tween-80, higher = longer survival): 90 % of control | T/C (endpoint: median survival time, dose: 3.0 mg/kg/injection, schedule: Q02DX009 (ip), vehicle: saline with Tween-80, higher = longer survival): 93 % of control | T/C (endpoint: median survival time, dose: 4.0 mg/kg/injection, schedule: Q01DX009 (ip), vehicle: Klucel (hydroxypropylcellulose) (HPC), higher = longer survival): 182 % of control | T/C (endpoint: median survival time, dose: 5.0 mg/kg/injection, schedule: Q01DX001 (ip), vehicle: gum acacia, higher = longer survival): 89 % of control | T/C (endpoint: median survival time, dose: 5.0 mg/kg/injection, schedule: Q01DX001 (ip), vehicle: other, higher = longer survival): 120 % of control | T/C (endpoint: median survival time, dose: 5.0 mg/kg/injection, schedule: Q01DX001 (ip), vehicle: saline, higher = longer survival): 96 % of control | T/C (endpoint: median survival time, dose: 6.0 mg/kg/injection, schedule: Q04DX003 (ip), vehicle: saline with Tween-80, higher = longer survival): 93 % of control | T/C (endpoint: median survival time, dose: 10.0 mg/kg/injection, schedule: Q01DX001 (ip), vehicle: other, higher = longer survival): 107 % of control and 124 % of control | T/C (endpoint: median survival time, dose: 10.0 mg/kg/injection, schedule: Q01DX001 (ip), vehicle: saline with Tween-80, higher = longer survival): 111 % of control | T/C (endpoint: median survival time, dose: 10.0 mg/kg/injection, schedule: Q01DX001 (ip), vehicle: saline, higher = longer survival): 101 % of control | T/C (endpoint: median survival time, dose: 10.0 mg/kg/injection, schedule: Q04DX003 (ip), vehicle: saline with Tween-80, higher = longer survival): 120 % of control | T/C (endpoint: median survival time, dose: 15.0 mg/kg/injection, schedule: Q01DX001 (ip), vehicle: saline with Tween-80, higher = longer survival): 108 % of control | T/C (endpoint: median survival time, dose: 22.5 mg/kg/injection, schedule: Q01DX001 (ip), vehicle: saline with Tween-80, higher = longer survival): 208 % of control | T/C (endpoint: median survival time, dose: 26.0 mg/kg/injection, schedule: Q01DX001 (ip), vehicle: gum acacia, higher = longer survival): 168 % of control | T/C (endpoint: median survival time, dose: 40.0 mg/kg/injection, schedule: Q01DX001 (ip), vehicle: saline, higher = longer survival): 156 % of control | T/C (endpoint: median tumor weight (est.), dose: 7.6 mg/kg/injection, schedule: Q01DX001 (ip), vehicle: gum acacia, higher = larger tumour): 93 % of control | T/C (endpoint: median tumor weight (est.), dose: 15.0 mg/kg/injection, schedule: Q01DX001 (ip), vehicle: gum acacia, higher = larger tumour): 10 % of control

Oc1ccc2ccccc2c1N=Nc1ccccc1
T/C (endpoint: mean tumor weight, dose: 25.0 mg/kg/injection, schedule: Q01DX011 (ip), vehicle: carboxymethylcellulose (CMC), higher = larger tumour): 78 % of control | T/C (endpoint: mean tumor weight, dose: 50.0 mg/kg/injection, schedule: Q01DX011 (ip), vehicle: carboxymethylcellulose (CMC), higher = larger tumour): 75 % of control | T/C (endpoint: mean tumor weight, dose: 100.0 mg/kg/injection, schedule: Q01DX011 (ip), vehicle: carboxymethylcellulose (CMC), higher = larger tumour): 84 % of control | T/C (endpoint: mean tumor weight, dose: 200.0 mg/kg/injection, schedule: Q01DX011 (ip), vehicle: carboxymethylcellulose (CMC), higher = larger tumour): 43 % of control

C=CCNC(=O)NCC=C
T/C (endpoint: mean tumor weight, dose: 25.0 mg/kg/injection, schedule: Q01DX011 (ip), vehicle: saline, higher = larger tumour): 96 % of control | T/C [1]: 28 % of control | T/C [2]: 16 % of control | T/C [3]: 43 % of control

Nc1nc(N)nc(N)n1
T/C (endpoint: median survival time, dose: 100.0 mg/kg/injection, schedule: Q01DX009 (ip), vehicle: saline with Tween-80, higher = longer survival): 103 % of control | T/C (endpoint: median survival time, dose: 200.0 mg/kg/injection, schedule: Q01DX009 (ip), vehicle: saline with Tween-80, higher = longer survival): 95 % of control | T/C (endpoint: median survival time, dose: 400.0 mg/kg/injection, schedule: Q01DX009 (ip), vehicle: saline with Tween-80, higher = longer survival): 98 % of control

Oc1cc(N2CC2)c(O)cc1N1CC1
T/C (endpoint: median survival time, dose: 0.22 mg/kg/injection, schedule: Q01DX009 (ip), vehicle: saline, higher = longer survival): 106 % of control | T/C (endpoint: median survival time, dose: 0.44 mg/kg/injection, schedule: Q01DX009 (ip), vehicle: saline, higher = longer survival): 105 % of control | T/C (endpoint: median survival time, dose: 0.68 mg/kg/injection, schedule: Q01DX009 (ip), vehicle: saline, higher = longer survival): 110 % of control | T/C (endpoint: median survival time, dose: 1.0 mg/kg/injection, schedule: Q01DX009 (ip), vehicle: saline, higher = longer survival): 90 % of control

OC(COc1cccc2ccccc12)CN(CCCl)CCCl (configuration not stated)
T/C (endpoint: median survival time, dose: 1.25 mg/kg/injection, schedule: Q01DX009 (ip), vehicle: Klucel (hydroxypropylcellulose) (HPC), higher = longer survival): 94 % of control and 104 % of control | T/C (endpoint: median survival time, dose: 2.5 mg/kg/injection, schedule: Q01DX009 (ip), vehicle: Klucel (hydroxypropylcellulose) (HPC), higher = longer survival): 100 % of control and 101 % of control | T/C (endpoint: median survival time, dose: 5.0 mg/kg/injection, schedule: Q01DX009 (ip), vehicle: Klucel (hydroxypropylcellulose) (HPC), higher = longer survival): 103 % of control

Nc1ccc(OC(=O)Oc2ccc(N)cc2)cc1
T/C (endpoint: mean tumor weight, dose: 31.3 mg/kg/injection, schedule: Q01DX011 (ip), vehicle: saline, higher = larger tumour): 60 % of control | T/C (endpoint: mean tumor weight, dose: 62.5 mg/kg/injection, schedule: Q01DX011 (ip), vehicle: saline, higher = larger tumour): 79 % of control | T/C (endpoint: mean tumor weight, dose: 125.0 mg/kg/injection, schedule: Q01DX011 (ip), vehicle: saline, higher = larger tumour): 49 % of control | T/C (endpoint: mean tumor weight, dose: 250.0 mg/kg/injection, schedule: Q01DX011 (ip), vehicle: saline, higher = larger tumour): 18 % of control

CC(=O)OC(C)(C)/C=C/C(=O)[C@](C)(O)[C@H]1[C@H](O)C[C@@]2(C)[C@@H]3CC=C4[C@@H](C=C(O)C(=O)C4(C)C)[C@]3(C)C(=O)C[C@]12C
T/C (endpoint: mean tumor weight, dose: 0.4 mg/kg/injection, schedule: Q01DX011 (ip), vehicle: carboxymethylcellulose (CMC), higher = larger tumour): 59 % of control | T/C (endpoint: mean tumor weight, dose: 0.8 mg/kg/injection, schedule: Q01DX011 (ip), vehicle: carboxymethylcellulose (CMC), higher = larger tumour): 78 % of control | T/C (endpoint: mean tumor weight, dose: 1.6 mg/kg/injection, schedule: Q01DX011 (ip), vehicle: carboxymethylcellulose (CMC), higher = larger tumour): 26 % of control | T/C (endpoint: mean tumor weight, dose: 3.2 mg/kg/injection, schedule: Q01DX011 (ip), vehicle: carboxymethylcellulose (CMC), higher = larger tumour): 27 % of control | T/C (endpoint: mean tumor weight, dose: 3.2 mg/kg/injection, schedule: Q01DX011 (ip), vehicle: saline, higher = larger tumour): 58 % of control | T/C (endpoint: mean tumor weight, dose: 6.4 mg/kg/injection, schedule: Q01DX011 (ip), vehicle: saline, higher = larger tumour): 33 % of control | T/C (endpoint: mean tumor weight, dose: 12.8 mg/kg/injection, schedule: Q01DX011 (ip), vehicle: saline, higher = larger tumour): 52 % of control

COc1ccc2c(c1)CC[C@@H]1[C@@H]2CC[C@@]2(C)[C@H]1CC[C@@]2(O)C(F)=C(F)F
T/C (endpoint: median survival time, dose: 12.5 mg/kg/injection, schedule: Q01DX009 (sc), vehicle: steriod suspending solution, higher = longer survival): 93 % of control

CC1CCC[N-]C1.CC1CCC[N-]C1.CC1CCC[N-]C1.CC1CCC[N-]C1.[Cl][Rh][Cl] (configuration not stated)
T/C (endpoint: median survival time, dose: 3.0 mg/kg/injection, schedule: Q01DX009 (ip), vehicle: Klucel (hydroxypropylcellulose) (HPC), higher = longer survival): 102 % of control | T/C (endpoint: median survival time, dose: 6.0 mg/kg/injection, schedule: Q01DX009 (ip), vehicle: Klucel (hydroxypropylcellulose) (HPC), higher = longer survival): 91 % of control

CCCCN(C)N=Nc1ccc(CCC(=O)OCC)cc1
T/C (endpoint: median tumor weight (est.), dose: 72.0 mg/kg/injection, schedule: Q01DX009 (ip), vehicle: saline with Tween-80, higher = larger tumour): 107 % of control | T/C (endpoint: median tumor weight (est.), dose: 145.0 mg/kg/injection, schedule: Q01DX009 (ip), vehicle: saline with Tween-80, higher = larger tumour): 95 % of control | T/C (endpoint: median tumor weight (est.), dose: 290.0 mg/kg/injection, schedule: Q01DX009 (ip), vehicle: saline with Tween-80, higher = larger tumour): 61 % of control

CC(C)C1=CCC2C(=C1)CCC1C(C)(C(=O)O)CCCC21C (configuration not stated) (tested in a mixture with another compound)
T/C [1]: 72 % of control | T/C [2]: 75 % of control | T/C [3]: 57 % of control | T/C (endpoint: mean tumor weight, dose: 400.0 mg/kg/injection, schedule: Q01DX011 (ip), vehicle: saline, higher = larger tumour): 45 % of control

O=C1NC2C(NC(=O)N2Cl)N1Cl (configuration not stated)
T/C (endpoint: mean tumor weight, dose: 20.0 mg/kg/injection, schedule: Q01DX011 (ip), vehicle: saline, higher = larger tumour): 97 % of control | T/C (endpoint: mean tumor weight, dose: 40.0 mg/kg/injection, schedule: Q01DX011 (ip), vehicle: saline, higher = larger tumour): 114 % of control
